# Experiments:
# Test in all cases: relative viability (nuclei count vs DMSO), 5 days (fraction); higher = more cells survive
# [1] = system: BEN
# Outline: (§1)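 Five library-drug doses in √10 steps were combined with a fixed anchor-drug dose, or a single drug was given alone, by pin tool to lung cancer cell lines in 1536-well plates the day after seeding. Nuclei were stained and counted after 5 days. Relative viability is the nuclei count in treated wells over that in vehicle wells, taken as the median of duplicate plates.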
# [2] = system: RERF-LC-KJ
# Outline: as §1
# [3] = system: NCI-H1975
# Outline: as §1
# [4] = system: NCI-H1993
# Outline: as §1
# [5] = system: 201T
# Outline: as §1
# [6] = system: SK-LU-1
# Outline: as §1
# [7] = system: NCI-H1734
# Outline: as §1
# [8] = system: NCI-H596
# Outline: as §1
# [9] = system: NCI-H1650
# Outline: as §1
# [10] = system: EKVX
# Outline: as §1
# [11] = system: LC-2-ad
# Outline: as §1
# [12] = system: HCC-15
# Outline: as §1
# [13] = system: NCI-H3122
# Outline: as §1
# [14] = system: LU99A
# Outline: as §1
# [15] = system: NCI-H1755
# Outline: as §1
# [16] = system: HCC-366
# Outline: as §1
# [17] = system: HARA
# Outline: as §1
# [18] = system: LXF-289
# Outline: as §1
# [19] = system: NCI-H1944
# Outline: as §1
# [20] = system: COR-L 105
# Outline: as §1
# [21] = system: HCC-827
# Outline: as §1
# [22] = system: COR-L23
# Outline: as §1
# [23] = system: HCC-78
# Outline: as §1
smiles,measurement,setting,value
Cc1cnc(-c2cnc(NCCNc3ccc(C#N)cn3)nc2-c2ccc(Cl)cc2Cl)[nH]1 + Cc1cc(Nc2cc(N3CCN(C)CC3)nc(Sc3ccc(NC(=O)C4CC4)cc3)n2)n[nH]1 [Tozasertib] (partner 0.1 µM),relative viability,[1]; first compound 0.08 µM,0.517
same,relative viability,[1]; first compound 0.253 µM,0.609
same,relative viability,[1]; first compound 0.8 µM,0.476
same,relative viability,[1]; first compound 2.53 µM,0.52
same,relative viability,[2]; first compound 0.08 µM,0.544
same,relative viability,[2]; first compound 0.253 µM,0.436
same,relative viability,[2]; first compound 0.8 µM,0.367
same,relative viability,[2]; first compound 2.53 µM,0.382
same,relative viability,[3]; first compound 0.08 µM,0.717
same,relative viability,[3]; first compound 0.253 µM,0.659
same,relative viability,[3]; first compound 0.8 µM,0.508
same,relative viability,[3]; first compound 2.53 µM,0.132
same,relative viability,[4]; first compound 0.08 µM,0.583
same,relative viability,[4]; first compound 0.253 µM,0.558
same,relative viability,[4]; first compound 0.8 µM,0.573
same,relative viability,[4]; first compound 2.53 µM,0.538
same,relative viability,[5]; first compound 0.08 µM,0.93
same,relative viability,[5]; first compound 0.8 µM,0.904
same,relative viability,[5]; first compound 2.53 µM,0.884
same,relative viability,[6]; first compound 0.08 µM,0.314
same,relative viability,[6]; first compound 0.253 µM,0.348
same,relative viability,[6]; first compound 0.8 µM,0.426
same,relative viability,[6]; first compound 2.53 µM,0.535
same,relative viability,[7]; first compound 0.08 µM,0.314
same,relative viability,[7]; first compound 0.253 µM,0.253
same,relative viability,[7]; first compound 0.8 µM,0.261
same,relative viability,[7]; first compound 2.53 µM,0.247
same,relative viability,[8]; first compound 0.08 µM,0.925
same,relative viability,[8]; first compound 0.253 µM,0.752
same,relative viability,[8]; first compound 0.8 µM,0.839
same,relative viability,[8]; first compound 2.53 µM,0.793
same,relative viability,[9]; first compound 0.08 µM,0.476
same,relative viability,[9]; first compound 0.253 µM,0.43
same,relative viability,[9]; first compound 0.8 µM,0.353
same,relative viability,[9]; first compound 2.53 µM,0.229
same,relative viability,[10]; first compound 0.08 µM,0.408
same,relative viability,[10]; first compound 0.253 µM,0.357
same,relative viability,[10]; first compound 0.8 µM,0.347
same,relative viability,[10]; first compound 2.53 µM,0.335
same,relative viability,[11]; first compound 0.08 µM,0.439
same,relative viability,[11]; first compound 0.253 µM,0.392
same,relative viability,[11]; first compound 2.53 µM,0.477
same,relative viability,[12]; first compound 0.08 µM,0.346
same,relative viability,[12]; first compound 0.253 µM,0.373
same,relative viability,[12]; first compound 0.8 µM,0.473
same,relative viability,[12]; first compound 2.53 µM,0.279
same,relative viability,[13]; first compound 0.08 µM,0.414
same,relative viability,[13]; first compound 0.8 µM,0.392
same,relative viability,[13]; first compound 2.53 µM,0.33
same,relative viability,[14]; first compound 0.08 µM,0.257
same,relative viability,[14]; first compound 0.253 µM,0.301
same,relative viability,[14]; first compound 0.8 µM,0.256
same,relative viability,[14]; first compound 2.53 µM,0.243
same,relative viability,[15]; first compound 0.08 µM,0.585
same,relative viability,[15]; first compound 0.253 µM,0.521
same,relative viability,[15]; first compound 0.8 µM,0.595
same,relative viability,[15]; first compound 2.53 µM,0.539
same,relative viability,[16]; first compound 0.08 µM,0.0773
same,relative viability,[16]; first compound 0.253 µM,0.0701
same,relative viability,[16]; first compound 0.8 µM,0.071
same,relative viability,[16]; first compound 2.53 µM,0.0493
same,relative viability,[17]; first compound 0.08 µM,0.116
same,relative viability,[17]; first compound 0.253 µM,0.113
same,relative viability,[17]; first compound 0.8 µM,0.116
same,relative viability,[17]; first compound 2.53 µM,0.1
same,relative viability,[18]; first compound 0.08 µM,0.223
same,relative viability,[18]; first compound 0.253 µM,0.155
same,relative viability,[18]; first compound 0.8 µM,0.18
same,relative viability,[18]; first compound 2.53 µM,0.161
same,relative viability,[19]; first compound 0.08 µM,0.253
same,relative viability,[19]; first compound 0.8 µM,0.254
same,relative viability,[19]; first compound 2.53 µM,0.252
same,relative viability,[20]; first compound 0.08 µM,0.349
same,relative viability,[20]; first compound 0.253 µM,0.327
same,relative viability,[20]; first compound 0.8 µM,0.346
same,relative viability,[20]; first compound 2.53 µM,0.298
same,relative viability,[21]; first compound 0.08 µM,0.432
same,relative viability,[21]; first compound 0.8 µM,0.44
same,relative viability,[21]; first compound 2.53 µM,0.407
same,relative viability,[22]; first compound 0.08 µM,0.205
same,relative viability,[22]; first compound 0.253 µM,0.181
same,relative viability,[22]; first compound 0.8 µM,0.164
same,relative viability,[22]; first compound 2.53 µM,0.109
same,relative viability,[23]; first compound 0.08 µM,0.482
same,relative viability,[23]; first compound 0.253 µM,0.311
same,relative viability,[23]; first compound 0.8 µM,0.428
same,relative viability,[23]; first compound 2.53 µM,0.384
Cc1cnc(-c2cnc(NCCNc3ccc(C#N)cn3)nc2-c2ccc(Cl)cc2Cl)[nH]1 + CC1(C)CCC(c2ccc(Cl)cc2)=C(CN2CCN(c3ccc(C(=O)NS(=O)(=O)c4ccc(N[C@H](CCN5CCOCC5)CSc5ccccc5)c(S(=O)(=O)C(F)(F)F)c4)cc3)CC2)C1 [Navitoclax] (partner 0.5 µM),relative viability,[1]; first compound 0.08 µM,0.0701
same,relative viability,[1]; first compound 0.253 µM,0.0548
same,relative viability,[1]; first compound 0.8 µM,0.0658
same,relative viability,[1]; first compound 2.53 µM,0.0673
same,relative viability,[2]; first compound 0.08 µM,1.08
same,relative viability,[2]; first compound 0.253 µM,0.626
same,relative viability,[2]; first compound 0.8 µM,0.905
same,relative viability,[2]; first compound 2.53 µM,0.776
same,relative viability,[3]; first compound 0.08 µM,1.12
same,relative viability,[3]; first compound 0.253 µM,0.982
same,relative viability,[3]; first compound 0.8 µM,0.933
same,relative viability,[3]; first compound 2.53 µM,0.567
same,relative viability,[4]; first compound 0.08 µM,0.976
same,relative viability,[4]; first compound 0.253 µM,0.906
same,relative viability,[4]; first compound 0.8 µM,0.996
same,relative viability,[4]; first compound 2.53 µM,0.882
same,relative viability,[5]; first compound 0.08 µM,1.19
same,relative viability,[5]; first compound 0.253 µM,1.17
same,relative viability,[5]; first compound 0.8 µM,1.2
same,relative viability,[5]; first compound 2.53 µM,1.23
same,relative viability,[6]; first compound 0.08 µM,0.976
same,relative viability,[6]; first compound 0.253 µM,0.807
same,relative viability,[6]; first compound 0.8 µM,1.2
same,relative viability,[6]; first compound 2.53 µM,0.692
same,relative viability,[7]; first compound 0.08 µM,0.946
same,relative viability,[7]; first compound 0.253 µM,0.784
same,relative viability,[7]; first compound 0.8 µM,0.829
same,relative viability,[7]; first compound 2.53 µM,0.788
same,relative viability,[8]; first compound 0.08 µM,1.1
same,relative viability,[8]; first compound 0.253 µM,0.79
same,relative viability,[8]; first compound 0.8 µM,0.882
same,relative viability,[8]; first compound 2.53 µM,0.897
same,relative viability,[9]; first compound 0.08 µM,1.13
same,relative viability,[9]; first compound 0.253 µM,1.05
same,relative viability,[9]; first compound 0.8 µM,1.42
same,relative viability,[9]; first compound 2.53 µM,1.21
same,relative viability,[10]; first compound 0.08 µM,0.715
same,relative viability,[10]; first compound 0.253 µM,0.844
same,relative viability,[10]; first compound 0.8 µM,0.905
same,relative viability,[10]; first compound 2.53 µM,0.814
same,relative viability,[11]; first compound 0.08 µM,0.53
same,relative viability,[11]; first compound 0.8 µM,0.452
same,relative viability,[11]; first compound 2.53 µM,0.5
same,relative viability,[12]; first compound 0.08 µM,0.737
same,relative viability,[12]; first compound 0.253 µM,0.622
same,relative viability,[12]; first compound 0.8 µM,0.65
same,relative viability,[12]; first compound 2.53 µM,0.578
same,relative viability,[13]; first compound 0.08 µM,0.988
same,relative viability,[13]; first compound 0.253 µM,0.881
same,relative viability,[13]; first compound 0.8 µM,0.977
same,relative viability,[13]; first compound 2.53 µM,0.994
same,relative viability,[14]; first compound 0.08 µM,0.858
same,relative viability,[14]; first compound 0.253 µM,0.808
same,relative viability,[14]; first compound 0.8 µM,0.794
same,relative viability,[14]; first compound 2.53 µM,0.823
same,relative viability,[15]; first compound 0.08 µM,1.07
same,relative viability,[15]; first compound 0.253 µM,0.866
same,relative viability,[15]; first compound 0.8 µM,1.01
same,relative viability,[15]; first compound 2.53 µM,0.989
same,relative viability,[16]; first compound 0.08 µM,1.04
same,relative viability,[16]; first compound 0.253 µM,1.02
same,relative viability,[16]; first compound 0.8 µM,1.09
same,relative viability,[16]; first compound 2.53 µM,0.89
same,relative viability,[17]; first compound 0.08 µM,1.13
same,relative viability,[17]; first compound 0.253 µM,1.12
same,relative viability,[17]; first compound 0.8 µM,1.16
same,relative viability,[17]; first compound 2.53 µM,1.19
same,relative viability,[18]; first compound 0.08 µM,0.934
same,relative viability,[18]; first compound 0.253 µM,0.873
same,relative viability,[18]; first compound 0.8 µM,0.924
same,relative viability,[18]; first compound 2.53 µM,1.01
same,relative viability,[19]; first compound 0.08 µM,1.03
same,relative viability,[19]; first compound 0.8 µM,0.992
same,relative viability,[19]; first compound 2.53 µM,1
same,relative viability,[20]; first compound 0.08 µM,0.875
same,relative viability,[20]; first compound 0.253 µM,0.686
same,relative viability,[20]; first compound 0.8 µM,1.54
same,relative viability,[20]; first compound 2.53 µM,0.558
same,relative viability,[21]; first compound 0.08 µM,1.04
same,relative viability,[21]; first compound 0.8 µM,1.05
same,relative viability,[21]; first compound 2.53 µM,1.05
same,relative viability,[22]; first compound 0.08 µM,1.07
same,relative viability,[22]; first compound 0.253 µM,1.03
same,relative viability,[22]; first compound 0.8 µM,1.09
same,relative viability,[22]; first compound 2.53 µM,1.06
same,relative viability,[23]; first compound 0.08 µM,0.955
same,relative viability,[23]; first compound 0.253 µM,0.661
same,relative viability,[23]; first compound 0.8 µM,0.701
same,relative viability,[23]; first compound 2.53 µM,0.757

# From the supplement of paper PMC10307832
